Measurements taken from ChEMBL document CHEMBL5625254, “Design, synthesis and evaluation of ursodeoxycholic acid-cinnamic acid hybrids as potential anti-inflammatory agents by inhibiting Akt/NF-κB and MAPK signaling pathways” (Eur J Med Chem, 2023).
pIC50: −log10 of the molar value.

Tests used:
RAW264.7 [1] = assay: Anti-inflammatory activity in mouse RAW264.7 cells assessed as inhibition of LPS-induced NO production incubated for 24 hrs; type: functional, cell-based; conditions: for pIC50: RAW264.7, 24 h; for inhibition: dose 1.25-20 µM
RAW264.7 [2] = assay: Cytotoxicity against mouse RAW264.7 cells assessed as cell viability at 20 uM incubated for 24 hrs by CCK8 assay; type: toxicity, cell-based; conditions: raw264.7, 24 h
RAW264.7 [3] = assay: Anti-inflammatory activity in mouse RAW264.7 cells assessed as inhibition of LPS-induced NO production at 10 uM incubated for 24 hrs relative to control; type: functional

Row | pIC50 (RAW264.7 [1]) | SMILES | inhibition (RAW264.7 [1]) | Activity (RAW264.7 [2]) | inhibition at 10 µM (RAW264.7 [3]) [%]
1 | 5.07 | C[C@H](CCC(=O)N1CCN(C(=O)/C=C/c2cccc(OC(F)(F)F)c2)CC1)[C@H]1CC[C@H]2[C@@H]3[C@@H](O)C[C@@H]4C[C@H](O)CC[C@]4(C)[C@H]3CC[C@]12C | Dose-Dependent Effect | Non-Toxic | > 50
2 |  | CC(=O)O[C@@H]1CC[C@@]2(C)[C@@H](C1)C[C@H](OC(C)=O)[C@@H]1[C@@H]2CC[C@]2(C)[C@@H]([C@H](C)CCC(=O)N3CCN(C(=O)/C=C/c4ccc(C)cc4)CC3)CC[C@@H]12 |  | Non-Toxic | 
3 |  | C[C@H](CCC(=O)N1CCN(C(=O)/C=C/c2ccc(O)cc2)CC1)[C@H]1CC[C@H]2[C@@H]3[C@@H](O)C[C@@H]4C[C@H](O)CC[C@]4(C)[C@H]3CC[C@]12C |  | Non-Toxic | 
4 |  | COc1cc(/C=C/C(=O)N2CCN(C(=O)CC[C@@H](C)[C@H]3CC[C@H]4[C@@H]5[C@@H](O)C[C@@H]6C[C@H](O)CC[C@]6(C)[C@H]5CC[C@]34C)CC2)ccc1O |  | Non-Toxic | 
5 | 5.08 | C[C@H](CCC(=O)N1CCN(C(=O)/C=C/c2ccc(Cl)cc2)CC1)[C@H]1CC[C@H]2[C@@H]3[C@@H](O)C[C@@H]4C[C@H](O)CC[C@]4(C)[C@H]3CC[C@]12C | Dose-Dependent Effect | Non-Toxic | > 50
6 |  | C/C(=C\c1ccccc1)C(=O)N1CCN(C(=O)CC[C@@H](C)[C@H]2CC[C@H]3[C@@H]4[C@@H](O)C[C@@H]5C[C@H](O)CC[C@]5(C)[C@H]4CC[C@]23C)CC1 |  | Non-Toxic | 
7 |  | C[C@H](CCC(=O)N1CCN(C(=O)/C=C/c2ccc3c(c2)OCO3)CC1)[C@H]1CC[C@H]2[C@@H]3[C@@H](O)C[C@@H]4C[C@H](O)CC[C@]4(C)[C@H]3CC[C@]12C |  | Non-Toxic | 
8 |  | C[C@H](CCC(=O)N1CCN(C(=O)/C=C/c2ccc(C(F)(F)F)cc2)CC1)[C@H]1CC[C@H]2[C@@H]3[C@@H](O)C[C@@H]4C[C@H](O)CC[C@]4(C)[C@H]3CC[C@]12C |  | Non-Toxic | 
9 |  | COc1ccc(/C=C/C(=O)N2CCN(C(=O)CC[C@@H](C)[C@H]3CC[C@H]4[C@@H]5[C@@H](O)C[C@@H]6C[C@H](O)CC[C@]6(C)[C@H]5CC[C@]34C)CC2)cc1 |  | Non-Toxic | 
10 | 5.02 | COc1cc(/C=C/C(=O)N2CCN(C(=O)CC[C@@H](C)[C@H]3CC[C@H]4[C@@H]5[C@@H](O)C[C@@H]6C[C@H](O)CC[C@]6(C)[C@H]5CC[C@]34C)CC2)cc(OC)c1OC | Dose-Dependent Effect | Non-Toxic | > 50
11 |  | C[C@H](CCC(=O)N1CCN(C(=O)CCc2ccccc2)CC1)[C@H]1CC[C@H]2[C@@H]3[C@@H](O)C[C@@H]4C[C@H](O)CC[C@]4(C)[C@H]3CC[C@]12C |  | Non-Toxic | 
12 |  | C[C@H](CCC(=O)N1CCN(C(=O)/C=C/c2ccc(F)c(F)c2)CC1)[C@H]1CC[C@H]2[C@@H]3[C@@H](O)C[C@@H]4C[C@H](O)CC[C@]4(C)[C@H]3CC[C@]12C |  | Non-Toxic | 
13 |  | Cc1ccc(/C=C/C(=O)N2CCN(C(=O)CC[C@@H](C)[C@H]3CC[C@H]4[C@@H]5C(=O)C[C@@H]6CC(=O)CC[C@]6(C)[C@H]5CC[C@]34C)CC2)cc1 |  | Toxic | 
14 |  | C[C@H](CCC(=O)N1CCN(C(=O)/C=C\c2ccc3c(c2)OCO3)CC1)[C@H]1CC[C@H]2[C@@H]3[C@@H](O)C[C@@H]4C[C@H](O)CC[C@]4(C)[C@H]3CC[C@]12C |  | Non-Toxic | 
15 |  | C[C@H](CCC(=O)N1CCN(C(=O)/C=C/c2cccc3ccccc23)CC1)[C@H]1CC[C@H]2[C@@H]3[C@@H](O)C[C@@H]4C[C@H](O)CC[C@]4(C)[C@H]3CC[C@]12C |  | Non-Toxic | 
16 |  | C[C@H](CCC(=O)N1CCN(C(=O)/C=C/c2cccc(O)c2)CC1)[C@H]1CC[C@H]2[C@@H]3[C@@H](O)C[C@@H]4C[C@H](O)CC[C@]4(C)[C@H]3CC[C@]12C |  | Non-Toxic | 
17 |  | C[C@H](CCC(=O)N1CCN(C(=O)/C=C/c2cc(F)cc(F)c2)CC1)[C@H]1CC[C@H]2[C@@H]3[C@@H](O)C[C@@H]4C[C@H](O)CC[C@]4(C)[C@H]3CC[C@]12C |  | Non-Toxic | 
18 |  | C[C@H](CCC(=O)N1CCN(C(=O)/C=C/c2ccc(F)cc2F)CC1)[C@H]1CC[C@H]2[C@@H]3[C@@H](O)C[C@@H]4C[C@H](O)CC[C@]4(C)[C@H]3CC[C@]12C |  | Toxic | 
19 |  | COc1cc(/C=C\C(=O)N2CCN(C(=O)CC[C@@H](C)[C@H]3CC[C@H]4[C@@H]5[C@@H](O)C[C@@H]6C[C@H](O)CC[C@]6(C)[C@H]5CC[C@]34C)CC2)ccc1O |  | Non-Toxic | 
20 | 5.02 | C[C@H](CCC(=O)N1CCN(C(=O)/C=C/c2ccccc2)CC1)[C@H]1CC[C@H]2[C@@H]3[C@@H](O)C[C@@H]4C[C@H](O)CC[C@]4(C)[C@H]3CC[C@]12C | Dose-Dependent Effect | Non-Toxic | > 50
21 |  | C[C@H](CCC(=O)N1CCN(C(=O)/C=C/c2ccccc2Cl)CC1)[C@H]1CC[C@H]2[C@@H]3[C@@H](O)C[C@@H]4C[C@H](O)CC[C@]4(C)[C@H]3CC[C@]12C |  | Non-Toxic | 
22 |  | C[C@H](CCC(=O)N1CCN(C(=O)/C=C/c2ccc(Cl)c(Cl)c2)CC1)[C@H]1CC[C@H]2[C@@H]3[C@@H](O)C[C@@H]4C[C@H](O)CC[C@]4(C)[C@H]3CC[C@]12C |  | Non-Toxic | 
23 |  | COc1cc(/C=C/C(=O)N2CCN(C(=O)CC[C@@H](C)[C@H]3CC[C@H]4[C@@H]5[C@@H](O)C[C@@H]6C[C@H](O)CC[C@]6(C)[C@H]5CC[C@]34C)CC2)cc(OC)c1O |  | Toxic | 
24 |  | C[C@H](CCC(=O)N1CCN(C(=O)/C=C/c2ccc(OC(F)(F)F)cc2)CC1)[C@H]1CC[C@H]2[C@@H]3[C@@H](O)C[C@@H]4C[C@H](O)CC[C@]4(C)[C@H]3CC[C@]12C |  | Toxic | 
25 |  | COc1cc(/C=C\C(=O)N2CCN(C(=O)CC[C@@H](C)[C@H]3CC[C@H]4[C@@H]5[C@@H](O)C[C@@H]6C[C@H](O)CC[C@]6(C)[C@H]5CC[C@]34C)CC2)cc(OC)c1OC |  | Non-Toxic | 
26 |  | C[C@H](CCC(=O)N1CCN(C(=O)/C=C/c2ccccc2O)CC1)[C@H]1CC[C@H]2[C@@H]3[C@@H](O)C[C@@H]4C[C@H](O)CC[C@]4(C)[C@H]3CC[C@]12C |  | Non-Toxic | 
27 |  | C[C@H](CCC(=O)N1CCN(C(=O)/C=C/c2cc(F)c(F)c(F)c2)CC1)[C@H]1CC[C@H]2[C@@H]3[C@@H](O)C[C@@H]4C[C@H](O)CC[C@]4(C)[C@H]3CC[C@]12C |  | Toxic | 
28 |  | C[C@H](CCC(=O)N1CCN(C(=O)/C=C/c2cccc(Cl)c2)CC1)[C@H]1CC[C@H]2[C@@H]3[C@@H](O)C[C@@H]4C[C@H](O)CC[C@]4(C)[C@H]3CC[C@]12C |  | Non-Toxic | 
